Species on record: Rattus norvegicus
Experiment: DrugMatrix - Regimen: Daily Repeat
Format: toxicity, organism-based, Sprague-Dawley
Design: regimen Daily Repeat, gender Male, age 6-8 weeks
Conditions: in vivo, po, route oral GAVAGE, vehicle 100 % WATER; for ABSOLUTE BASOPHIL / ABSOLUTE EOSINOPHIL / ABSOLUTE LYMPHOCYTE / ABSOLUTE MONOCYTE / ABSOLUTE SEGMENTED NEUTROPHIL / BASOPHIL / EOSINOPHIL / ERYTHROCYTE COUNT / HEMATOCRIT / HEMOGLOBIN / LEUKOCYTE COUNT / LYMPHOCYTE / MEAN CORPUSCULAR HEMOGLOBIN / MEAN CORPUSCULAR HEMOGLOBIN CONCENTRATION / MEAN CORPUSCULAR VOLUME / MONOCYTE / NEUTROPHIL / NUCLEATED RED BLOOD CELLS / PLATELET COUNT: tissue Blood; for ALANINE AMINOTRANSFERASE / ALBUMIN / ALKALINE PHOSPHATASE / ASPARTATE AMINOTRANSFERASE / BLOOD UREA NITROGEN / CARBON DIOXIDE / CHLORIDE / CHOLESTEROL / CREATINE PHOSPHOKINASE / CREATININE / GLUCOSE / LACTATE DEHYDROGENASE / LIPASE / PHOSPHORUS / POTASSIUM / SODIUM / TOTAL BILIRUBIN / TOTAL PROTEIN / URIC ACID: tissue Plasma
[1] = 0 mg/kg, 72 h, dose level Control, time 3 day
[2] = 0 mg/kg, 120 h, dose level Control, time 5 day
[3] = 3525 mg/kg, 72 h, dose level High, time 3 day
[4] = 3525 mg/kg, 120 h, dose level High, time 5 day

OCCO [ETHYLENE GLYCOL]
ABSOLUTE BASOPHIL [1]: 0 CELLS/uL | ABSOLUTE EOSINOPHIL [1]: 0 CELLS/uL | ABSOLUTE LYMPHOCYTE [1]: 7802.17 CELLS/uL | ABSOLUTE MONOCYTE [1]: 13.5 CELLS/uL | ABSOLUTE SEGMENTED NEUTROPHIL [1]: 617.67 CELLS/uL | BASOPHIL [1]: 0% | EOSINOPHIL [1]: 0% | ERYTHROCYTE COUNT [1]: 5.35 x10E6/uL | HEMATOCRIT [1]: 33.02% | HEMOGLOBIN [1]: 12.88 G/DL | LEUKOCYTE COUNT [1]: 8.43 x10E3/uL | LYMPHOCYTE [1]: 92.67% | MEAN CORPUSCULAR HEMOGLOBIN [1]: 24.12 pg | MEAN CORPUSCULAR HEMOGLOBIN CONCENTRATION [1]: 39.03 G/DL | MEAN CORPUSCULAR VOLUME [1]: 61.8 fL | MONOCYTE [1]: 0.17% | NEUTROPHIL [1]: 7.17% | NUCLEATED RED BLOOD CELLS [1]: 0 /100WBC | PLATELET COUNT [1]: 1124.83 x10E3/uL | ALANINE AMINOTRANSFERASE [1]: 54.17 u/L | ALBUMIN [1]: 4.07 G/DL | ALKALINE PHOSPHATASE [1]: 383.83 u/L | ASPARTATE AMINOTRANSFERASE [1]: 82.17 u/L | BLOOD UREA NITROGEN [1]: 13.67 mg/dL | CARBON DIOXIDE [1]: 31 mmol/L | CHLORIDE [1]: 100.83 MEQ/L | CHOLESTEROL [1]: 65.17 mg/dL | CREATINE PHOSPHOKINASE [1]: 228.33 u/L | CREATININE [1]: 0.12 mg/dL | GLUCOSE [1]: 148 mg/dL | LACTATE DEHYDROGENASE [1]: 97.83 u/L | LIPASE [1]: 9.17 u/L | PHOSPHORUS [1]: 9.75 mg/dL | POTASSIUM [1]: 5.85 MEQ/L | SODIUM [1]: 147.02 MEQ/L | TOTAL BILIRUBIN [1]: 0.18 mg/dL | TOTAL PROTEIN [1]: 6.1 G/DL | URIC ACID [1]: 0.5 mg/dL | ABSOLUTE BASOPHIL [2]: 0 CELLS/uL | ABSOLUTE EOSINOPHIL [2]: 0 CELLS/uL | ABSOLUTE LYMPHOCYTE [2]: 10538 CELLS/uL | ABSOLUTE MONOCYTE [2]: 15.83 CELLS/uL | ABSOLUTE SEGMENTED NEUTROPHIL [2]: 762.83 CELLS/uL | BASOPHIL [2]: 0% | EOSINOPHIL [2]: 0% | ERYTHROCYTE COUNT [2]: 5.49 x10E6/uL | HEMATOCRIT [2]: 34.63% | HEMOGLOBIN [2]: 13.72 G/DL | LEUKOCYTE COUNT [2]: 11.32 x10E3/uL | LYMPHOCYTE [2]: 92.67% | MEAN CORPUSCULAR HEMOGLOBIN [2]: 24.97 pg | MEAN CORPUSCULAR HEMOGLOBIN CONCENTRATION [2]: 39.57 G/DL | MEAN CORPUSCULAR VOLUME [2]: 63.05 fL | MONOCYTE [2]: 0.17% | NEUTROPHIL [2]: 7.17% | NUCLEATED RED BLOOD CELLS [2]: 0.17 /100WBC | PLATELET COUNT [2]: 802 x10E3/uL | ALANINE AMINOTRANSFERASE [2]: 50.5 u/L | ALBUMIN [2]: 4.07 G/DL | ALKALINE PHOSPHATASE [2]: 336.83 u/L | ASPARTATE AMINOTRANSFERASE [2]: 81 u/L | BLOOD UREA NITROGEN [2]: 14.17 mg/dL | CARBON DIOXIDE [2]: 32 mmol/L | CHLORIDE [2]: 98.33 MEQ/L | CHOLESTEROL [2]: 69.17 mg/dL | CREATINE PHOSPHOKINASE [2]: 253.33 u/L | CREATININE [2]: 0.13 mg/dL | GLUCOSE [2]: 153.67 mg/dL | LACTATE DEHYDROGENASE [2]: 157 u/L | LIPASE [2]: 9 u/L | PHOSPHORUS [2]: 10.78 mg/dL | POTASSIUM [2]: 6.11 MEQ/L | SODIUM [2]: 144.57 MEQ/L | TOTAL BILIRUBIN [2]: 0.15 mg/dL | TOTAL PROTEIN [2]: 6.05 G/DL | URIC ACID [2]: 0.73 mg/dL | ABSOLUTE BASOPHIL [3]: 0 CELLS/uL | ABSOLUTE EOSINOPHIL [3]: 0 CELLS/uL | ABSOLUTE LYMPHOCYTE [3]: 6464 CELLS/uL | ABSOLUTE MONOCYTE [3]: 70.67 CELLS/uL | ABSOLUTE SEGMENTED NEUTROPHIL [3]: 598.67 CELLS/uL | BASOPHIL [3]: 0% | EOSINOPHIL [3]: 0% | ERYTHROCYTE COUNT [3]: 5.57 x10E6/uL | HEMATOCRIT [3]: 33.43% | HEMOGLOBIN [3]: 13.07 G/DL | LEUKOCYTE COUNT [3]: 7.13 x10E3/uL | LYMPHOCYTE [3]: 90.67% | MEAN CORPUSCULAR HEMOGLOBIN [3]: 23.5 pg | MEAN CORPUSCULAR HEMOGLOBIN CONCENTRATION [3]: 39.1 G/DL | MEAN CORPUSCULAR VOLUME [3]: 60.17 fL | MONOCYTE [3]: 1% | NEUTROPHIL [3]: 8.33% | NUCLEATED RED BLOOD CELLS [3]: 0 /100WBC | PLATELET COUNT [3]: 918.33 x10E3/uL | ALANINE AMINOTRANSFERASE [3]: 68 u/L | ALBUMIN [3]: 3.93 G/DL | ALKALINE PHOSPHATASE [3]: 332 u/L | ASPARTATE AMINOTRANSFERASE [3]: 88.33 u/L | BLOOD UREA NITROGEN [3]: 12.33 mg/dL | CARBON DIOXIDE [3]: 36 mmol/L | CHLORIDE [3]: 97.67 MEQ/L | CHOLESTEROL [3]: 61 mg/dL | CREATINE PHOSPHOKINASE [3]: 279 u/L | CREATININE [3]: 0.1 mg/dL | GLUCOSE [3]: 140 mg/dL | LACTATE DEHYDROGENASE [3]: 110.33 u/L | LIPASE [3]: 9 u/L | PHOSPHORUS [3]: 9 mg/dL | POTASSIUM [3]: 5.82 MEQ/L | SODIUM [3]: 143.77 MEQ/L | TOTAL BILIRUBIN [3]: 0.17 mg/dL | TOTAL PROTEIN [3]: 5.7 G/DL | URIC ACID [3]: 0.77 mg/dL | ABSOLUTE BASOPHIL [4]: 0 CELLS/uL | ABSOLUTE EOSINOPHIL [4]: 0 CELLS/uL | ABSOLUTE LYMPHOCYTE [4]: 7667.33 CELLS/uL | ABSOLUTE MONOCYTE [4]: 0 CELLS/uL | ABSOLUTE SEGMENTED NEUTROPHIL [4]: 399.33 CELLS/uL | BASOPHIL [4]: 0% | EOSINOPHIL [4]: 0% | ERYTHROCYTE COUNT [4]: 5.77 x10E6/uL | HEMATOCRIT [4]: 35.47% | HEMOGLOBIN [4]: 14.17 G/DL | LEUKOCYTE COUNT [4]: 8.07 x10E3/uL | LYMPHOCYTE [4]: 95.33% | MEAN CORPUSCULAR HEMOGLOBIN [4]: 24.53 pg | MEAN CORPUSCULAR HEMOGLOBIN CONCENTRATION [4]: 39.97 G/DL | MEAN CORPUSCULAR VOLUME [4]: 61.43 fL | MONOCYTE [4]: 0% | NEUTROPHIL [4]: 4.67% | NUCLEATED RED BLOOD CELLS [4]: 0 /100WBC | PLATELET COUNT [4]: 1091.67 x10E3/uL | ALANINE AMINOTRANSFERASE [4]: 54 u/L | ALBUMIN [4]: 4.1 G/DL | ALKALINE PHOSPHATASE [4]: 328.33 u/L | ASPARTATE AMINOTRANSFERASE [4]: 80 u/L | BLOOD UREA NITROGEN [4]: 14 mg/dL | CARBON DIOXIDE [4]: 35.67 mmol/L | CHLORIDE [4]: 96.33 MEQ/L | CHOLESTEROL [4]: 66 mg/dL | CREATINE PHOSPHOKINASE [4]: 238.33 u/L | CREATININE [4]: 0.14 mg/dL | GLUCOSE [4]: 145 mg/dL | LACTATE DEHYDROGENASE [4]: 115.67 u/L | LIPASE [4]: 9.33 u/L | PHOSPHORUS [4]: 9.87 mg/dL | POTASSIUM [4]: 6.09 MEQ/L | SODIUM [4]: 144 MEQ/L | TOTAL BILIRUBIN [4]: 0.17 mg/dL | TOTAL PROTEIN [4]: 6.17 G/DL | URIC ACID [4]: 0.73 mg/dL
